Assay results: ChEMBL document CHEMBL1201862, “PubChem BioAssay data set” (2004)
Active and inactive are the calls of the source.

What was measured:
[1] = molecular target: Glyceraldehyde-3-phosphate dehydrogenase (Homo sapiens, UniProt P04406)
[2] = HPDE-C7 pancreatic duct cell viability loss – fluorescence, HTS (AID 430); assay type: functional, cell-based; details: Homo sapiens
[3] = viability loss of HPDE-C7K cells – cell-based, fluorescence, HTS, primary screen (AID 431); assay type: functional; details: Homo sapiens
[4] = viability of PTEN-deleted HCT116 cells – cell-based, HCT116 PTEN knockout, dose response (AID 1047); assay type: functional;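 further: HCT116 colon tumor cells with PTEN knocked out; cells exposed to compound for 60 hours before readout; potency for loss of cell viability measured by luminescence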
[5] = viability of HCT116 lacking mutant beta-catenin – cell-based, human colon tumor, dose response (AID 1045); assay type: functional;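 further: HCT116 colon tumor cells with beta catenin knocked out; cells exposed to compound for 60 hours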
H9c2 = experiment: cells; assay type: functional, cell-based; details: Rattus norvegicus, H9c2, Myocardium
[6] = molecular target: Peroxisome proliferator-activated receptor gamma/Nuclear receptor coactivator 1 (Homo sapiens, UniProt P37231); experiment: TR-FRET dose response biochemical High Throughput Screening assay for agonists of the steroid receptor coactivator 1 (SRC-1) recruitment by the peroxisome proliferator-activated receptor gamma (PPAR gamma): non-selective agonists. [Related pubchem assays (depositor defined):AID1300, AID1808, AID504735, AID631]; assay type: protein assay
[7] = molecular target: Peroxisome proliferator-activated receptor gamma/Nuclear receptor coactivator 3 (Homo sapiens, UniProt P37231); experiment: TR-FRET dose response biochemical High Throughput Screening assay for agonists of the steroid receptor coactivator 3 (SRC-3) recruitment by the peroxisome proliferator-activated receptor gamma (PPAR gamma): non-selective agonists. [Related pubchem assays: 1301 (Confirmation screen.), 1048 (Primary screen.)]; assay type: functional
Peroxisome proliferator-activated receptor gamma/Nuclear receptor coactivator 3, sequence (P37231 whole entry): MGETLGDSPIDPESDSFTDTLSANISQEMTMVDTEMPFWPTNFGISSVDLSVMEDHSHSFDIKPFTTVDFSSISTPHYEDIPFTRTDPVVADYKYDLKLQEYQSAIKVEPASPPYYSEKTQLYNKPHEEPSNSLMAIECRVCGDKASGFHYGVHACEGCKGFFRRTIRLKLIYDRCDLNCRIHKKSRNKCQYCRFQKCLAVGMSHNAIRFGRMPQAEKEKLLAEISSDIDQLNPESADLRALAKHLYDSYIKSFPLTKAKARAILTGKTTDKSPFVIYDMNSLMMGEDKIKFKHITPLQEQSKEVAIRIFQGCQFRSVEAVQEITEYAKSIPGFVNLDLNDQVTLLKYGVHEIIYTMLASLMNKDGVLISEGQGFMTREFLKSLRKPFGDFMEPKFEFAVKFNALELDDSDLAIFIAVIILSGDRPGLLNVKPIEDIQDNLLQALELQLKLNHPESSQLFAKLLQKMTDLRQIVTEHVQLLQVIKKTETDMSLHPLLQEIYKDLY
Peroxisome proliferator-activated receptor gamma/Nuclear receptor coactivator 3, sequence (Q9Y6Q9 whole entry, further chain): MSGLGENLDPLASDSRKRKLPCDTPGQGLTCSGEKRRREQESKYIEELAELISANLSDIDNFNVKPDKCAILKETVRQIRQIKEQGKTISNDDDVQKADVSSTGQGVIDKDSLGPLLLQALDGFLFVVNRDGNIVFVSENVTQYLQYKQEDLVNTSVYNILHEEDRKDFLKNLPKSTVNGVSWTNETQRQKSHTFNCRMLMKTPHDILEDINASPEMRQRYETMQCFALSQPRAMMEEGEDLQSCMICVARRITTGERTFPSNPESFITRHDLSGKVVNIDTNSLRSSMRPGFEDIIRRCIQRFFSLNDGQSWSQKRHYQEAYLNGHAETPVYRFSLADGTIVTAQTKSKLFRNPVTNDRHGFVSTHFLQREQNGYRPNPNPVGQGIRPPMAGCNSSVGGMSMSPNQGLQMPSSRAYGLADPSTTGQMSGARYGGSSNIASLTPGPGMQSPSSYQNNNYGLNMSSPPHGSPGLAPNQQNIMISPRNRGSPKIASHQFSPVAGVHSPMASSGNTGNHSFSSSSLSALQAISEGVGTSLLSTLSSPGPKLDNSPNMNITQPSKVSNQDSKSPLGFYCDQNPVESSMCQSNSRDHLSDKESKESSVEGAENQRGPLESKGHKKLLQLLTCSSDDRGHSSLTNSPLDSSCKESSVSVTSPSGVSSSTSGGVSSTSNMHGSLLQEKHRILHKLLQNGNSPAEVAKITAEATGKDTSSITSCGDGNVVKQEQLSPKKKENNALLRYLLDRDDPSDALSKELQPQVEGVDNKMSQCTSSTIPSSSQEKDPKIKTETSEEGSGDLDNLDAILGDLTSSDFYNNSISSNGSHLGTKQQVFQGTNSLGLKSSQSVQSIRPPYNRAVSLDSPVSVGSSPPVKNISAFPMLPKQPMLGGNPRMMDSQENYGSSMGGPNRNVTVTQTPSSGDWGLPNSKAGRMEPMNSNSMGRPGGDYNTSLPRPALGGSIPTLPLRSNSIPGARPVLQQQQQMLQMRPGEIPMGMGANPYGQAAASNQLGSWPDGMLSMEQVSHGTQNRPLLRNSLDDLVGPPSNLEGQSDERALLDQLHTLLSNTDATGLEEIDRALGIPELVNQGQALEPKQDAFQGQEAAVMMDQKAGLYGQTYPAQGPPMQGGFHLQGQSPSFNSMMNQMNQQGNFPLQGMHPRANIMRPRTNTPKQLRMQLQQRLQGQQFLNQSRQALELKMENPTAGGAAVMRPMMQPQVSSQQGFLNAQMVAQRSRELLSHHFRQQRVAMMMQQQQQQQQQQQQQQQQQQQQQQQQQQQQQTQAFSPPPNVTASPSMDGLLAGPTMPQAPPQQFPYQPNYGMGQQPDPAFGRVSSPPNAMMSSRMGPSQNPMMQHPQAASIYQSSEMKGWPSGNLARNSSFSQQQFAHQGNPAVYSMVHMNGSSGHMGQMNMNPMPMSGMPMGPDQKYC

[8] = molecular target: Peroxisome proliferator-activated receptor gamma/Nuclear receptor coactivator 2 (Homo sapiens, UniProt P37231); experiment: TR-FRET dose response biochemical High Throughput Screening assay for agonists of the steroid receptor coactivator 2 (SRC-2) recruitment by the peroxisome proliferator-activated receptor gamma (PPAR gamma): non-selective agonists. [Related pubchem assays: 1297, 1032 ]; assay type: functional
Peroxisome proliferator-activated receptor gamma/Nuclear receptor coactivator 2, sequence (P37231 whole entry): as the sequence (P37231 whole entry) above
Peroxisome proliferator-activated receptor gamma/Nuclear receptor coactivator 2, sequence (Q15596 whole entry, further chain): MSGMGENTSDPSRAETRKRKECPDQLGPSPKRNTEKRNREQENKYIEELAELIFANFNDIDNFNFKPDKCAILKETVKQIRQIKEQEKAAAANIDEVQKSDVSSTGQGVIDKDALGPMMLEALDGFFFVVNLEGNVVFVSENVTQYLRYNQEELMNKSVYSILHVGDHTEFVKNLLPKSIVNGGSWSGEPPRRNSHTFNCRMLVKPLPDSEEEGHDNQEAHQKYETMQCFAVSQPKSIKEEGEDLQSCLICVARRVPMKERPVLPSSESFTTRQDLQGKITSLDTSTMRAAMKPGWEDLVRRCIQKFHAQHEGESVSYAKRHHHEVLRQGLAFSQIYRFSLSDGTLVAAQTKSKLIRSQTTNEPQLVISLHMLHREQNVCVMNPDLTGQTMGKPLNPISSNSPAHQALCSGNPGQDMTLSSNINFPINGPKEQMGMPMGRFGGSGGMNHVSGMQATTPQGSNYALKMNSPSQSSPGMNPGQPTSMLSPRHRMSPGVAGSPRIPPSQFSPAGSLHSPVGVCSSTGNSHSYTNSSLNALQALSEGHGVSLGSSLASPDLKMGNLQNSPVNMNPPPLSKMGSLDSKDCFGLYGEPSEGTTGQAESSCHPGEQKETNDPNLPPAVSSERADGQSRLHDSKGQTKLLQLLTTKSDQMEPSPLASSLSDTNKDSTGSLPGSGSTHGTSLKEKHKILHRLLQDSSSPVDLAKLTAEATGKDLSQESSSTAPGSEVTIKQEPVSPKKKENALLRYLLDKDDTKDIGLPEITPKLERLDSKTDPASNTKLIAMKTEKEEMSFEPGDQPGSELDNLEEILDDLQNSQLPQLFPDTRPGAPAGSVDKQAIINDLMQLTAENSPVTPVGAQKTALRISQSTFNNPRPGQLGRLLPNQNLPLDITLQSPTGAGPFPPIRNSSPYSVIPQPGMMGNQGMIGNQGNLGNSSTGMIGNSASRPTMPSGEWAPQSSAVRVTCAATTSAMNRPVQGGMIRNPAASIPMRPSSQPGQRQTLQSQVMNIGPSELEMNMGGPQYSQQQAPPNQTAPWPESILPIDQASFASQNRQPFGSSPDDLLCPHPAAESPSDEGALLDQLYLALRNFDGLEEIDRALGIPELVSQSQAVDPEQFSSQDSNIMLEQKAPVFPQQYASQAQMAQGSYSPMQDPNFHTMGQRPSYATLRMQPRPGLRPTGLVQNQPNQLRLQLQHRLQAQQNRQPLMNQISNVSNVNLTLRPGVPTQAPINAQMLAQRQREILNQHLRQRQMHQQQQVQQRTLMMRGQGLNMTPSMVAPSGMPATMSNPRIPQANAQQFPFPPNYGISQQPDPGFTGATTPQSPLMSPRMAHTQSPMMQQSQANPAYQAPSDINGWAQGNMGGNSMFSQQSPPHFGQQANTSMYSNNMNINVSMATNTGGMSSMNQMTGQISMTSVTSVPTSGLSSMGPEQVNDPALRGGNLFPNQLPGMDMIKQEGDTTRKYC

Estrogen receptor = molecular target: T1, Estrogen receptor (Homo sapiens, UniProt P03372);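 further: potency for inhibiting coactivator peptide recruitment to the receptor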
T1 sequence (P03372 whole entry): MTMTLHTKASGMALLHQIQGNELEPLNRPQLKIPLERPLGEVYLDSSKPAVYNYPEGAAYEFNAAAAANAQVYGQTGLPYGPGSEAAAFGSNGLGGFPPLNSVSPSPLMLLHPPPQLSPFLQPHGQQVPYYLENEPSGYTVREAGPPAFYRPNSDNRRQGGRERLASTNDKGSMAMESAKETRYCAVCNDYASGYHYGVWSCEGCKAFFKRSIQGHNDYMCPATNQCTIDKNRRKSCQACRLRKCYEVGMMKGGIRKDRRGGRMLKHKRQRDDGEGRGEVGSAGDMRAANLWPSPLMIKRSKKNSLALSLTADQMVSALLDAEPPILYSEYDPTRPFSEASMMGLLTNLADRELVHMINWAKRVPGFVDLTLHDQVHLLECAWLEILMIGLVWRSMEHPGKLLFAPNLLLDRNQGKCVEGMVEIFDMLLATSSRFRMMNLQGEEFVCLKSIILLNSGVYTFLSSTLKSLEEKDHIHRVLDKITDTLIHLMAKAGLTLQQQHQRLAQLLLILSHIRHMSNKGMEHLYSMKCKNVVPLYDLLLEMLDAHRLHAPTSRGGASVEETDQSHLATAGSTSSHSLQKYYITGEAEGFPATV

Estrogen receptor beta [9] = molecular target: T2, Estrogen receptor beta (Homo sapiens, UniProt Q92731);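 further: recombinant ER-beta bound to coactivator SRC1 peptide in presence of estradiol agonist; inhibitors block coactivator peptide binding and lower the FRET signal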
T2 sequence (Q92731 whole entry): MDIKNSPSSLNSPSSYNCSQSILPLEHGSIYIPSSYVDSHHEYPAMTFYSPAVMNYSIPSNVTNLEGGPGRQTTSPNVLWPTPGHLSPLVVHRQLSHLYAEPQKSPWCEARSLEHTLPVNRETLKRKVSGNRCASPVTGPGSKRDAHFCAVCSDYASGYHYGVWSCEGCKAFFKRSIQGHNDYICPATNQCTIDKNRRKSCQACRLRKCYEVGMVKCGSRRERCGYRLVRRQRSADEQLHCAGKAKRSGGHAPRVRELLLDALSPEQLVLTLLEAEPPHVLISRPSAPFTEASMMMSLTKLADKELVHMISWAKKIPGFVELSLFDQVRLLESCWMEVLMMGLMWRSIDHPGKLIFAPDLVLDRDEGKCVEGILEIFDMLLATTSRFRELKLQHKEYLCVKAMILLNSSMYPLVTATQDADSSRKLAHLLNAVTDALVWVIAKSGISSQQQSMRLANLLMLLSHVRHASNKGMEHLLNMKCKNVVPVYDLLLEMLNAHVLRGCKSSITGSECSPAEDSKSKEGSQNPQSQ

Estrogen receptor beta [10] = molecular target: T2, Estrogen receptor beta; experiment: blockers of SRC-3 recruitment to ERβ – biochemical, ELISA, streptavidin-HRP readout, orthogonal assay, confirmation (AID 1060)
[11] = viability of uninfected HEp-2 cells – cell-based, HTS, cytotoxicity control for RSV inhibitor project, dose response (AID 2410); assay type: functional; details: human respiratory syncytial virus
cells [12] = experiment: cells
[13] = molecular target: T3, RNA-binding protein pos-1 (Caenorhabditis elegans, UniProt G5EF15); experiment: disruptors of C. elegans POS-1 RNA interaction – biochemical, fluorescence polarization, dose response (AID 1964);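 further: purified POS-1 fused to maltose binding protein made in E. coli; potency of compounds blocking POS-1 binding to fluorescent RNA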
T3 sequence (G5EF15 whole entry): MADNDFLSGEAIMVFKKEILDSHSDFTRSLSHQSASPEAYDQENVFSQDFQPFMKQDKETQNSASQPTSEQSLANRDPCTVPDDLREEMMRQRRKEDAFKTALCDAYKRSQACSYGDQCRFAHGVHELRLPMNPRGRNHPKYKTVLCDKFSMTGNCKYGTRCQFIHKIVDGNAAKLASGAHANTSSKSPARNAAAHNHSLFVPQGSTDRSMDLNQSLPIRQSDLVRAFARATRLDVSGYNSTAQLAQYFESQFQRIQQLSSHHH

[14] = molecular target: T4, Zinc finger protein mex-5 (Caenorhabditis elegans, UniProt Q9XUB2); experiment: potency of MEX-5 RNA-binding blockers – biochemical, C. elegans, fluorescence polarization, dose response (AID 1960)
T4 sequence (Q9XUB2 whole entry): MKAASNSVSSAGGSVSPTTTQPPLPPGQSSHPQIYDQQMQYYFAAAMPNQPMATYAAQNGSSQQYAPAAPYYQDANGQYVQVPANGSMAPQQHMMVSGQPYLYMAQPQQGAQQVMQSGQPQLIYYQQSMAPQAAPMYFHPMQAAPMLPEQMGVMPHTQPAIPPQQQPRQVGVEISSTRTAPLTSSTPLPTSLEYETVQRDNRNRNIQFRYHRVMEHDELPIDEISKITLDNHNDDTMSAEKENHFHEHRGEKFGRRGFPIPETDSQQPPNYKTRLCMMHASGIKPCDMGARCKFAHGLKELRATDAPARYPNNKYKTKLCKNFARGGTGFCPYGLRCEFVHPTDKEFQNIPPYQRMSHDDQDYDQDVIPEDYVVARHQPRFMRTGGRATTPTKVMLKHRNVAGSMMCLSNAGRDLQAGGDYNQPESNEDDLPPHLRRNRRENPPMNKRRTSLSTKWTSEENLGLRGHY

Large T antigen = Large T antigen (Simian virus 40, UniProt P03070); assay type: functional, Betapolyomavirus macacae;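 further: Confirmatory-stage PubChem screen for compounds that inhibit SV40 T antigen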
[15] = THP-1 cell cytotoxicity, dose response, cytotoxicity control for non-replicating M. tuberculosis project (AID 489025); assay type: functional
cells [16] = assay type: functional
Genome polyprotein = Genome polyprotein (dengue virus type 2, UniProt P29990); experiment: flavivirus cap methylation enzyme inhibition – biochemical, confirmation dose response, primary screen (AID 588689); assay type: functional
[17] = molecular target: Induced myeloid leukemia cell differentiation protein Mcl-1 (Homo sapiens, UniProt Q07820); assay type: functional
[18] = molecular target: FAD-linked sulfhydryl oxidase ALR (Homo sapiens, UniProt P55789); experiment: ALR-catalysed DTT oxidation blockers – biochemical, H2O2 detection, luminescence, cherry-pick, dose response (AID 493248)
FAD-linked sulfhydryl oxidase ALR, sequence (P55789 whole entry): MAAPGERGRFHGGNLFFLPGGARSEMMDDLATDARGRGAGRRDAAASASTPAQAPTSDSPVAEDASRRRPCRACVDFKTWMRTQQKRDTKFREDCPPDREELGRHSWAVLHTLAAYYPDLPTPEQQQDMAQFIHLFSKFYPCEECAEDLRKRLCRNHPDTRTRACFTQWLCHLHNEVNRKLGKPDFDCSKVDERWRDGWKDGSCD

[19] = Trypanosoma cruzi growth suppression in host cells – NIH3T3 host cells, beta-gal luminescence, confirmation (AID 2044); assay type: functional, cell-based;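 further: intracellular parasites grown in NIH/3T3 mouse fibroblasts as host cells; luminescent beta-galactosidase reporter signal from transgenic T. cruzi replicating inside host cells; inhibitors lower the luminescence signal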
[20] = NIH3T3 cell viability loss – ATP luminescence, mouse fibroblasts, counter-screen, dose response (AID 2010); assay type: functional, cell-based;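 further: cells exposed to compound for about 90 hours before reading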
cells [21] = experiment: cells; remark: listed apart in the source
[22] = molecular target: T5, Polyadenylate-binding protein 1 (Homo sapiens, UniProt P11940); experiment: MLLE binding blockers, Cy5 peptide tracer – biochemical, fluorescence polarization, Cy5-PAM2 peptide, secondary, miRNA deadenylation inhibitor project, dose response (AID 602260); assay type: functional; details: read-out: IC50_Mean
[23] = molecular target: T5, Polyadenylate-binding protein 1; experiment: MLLE domain peptide-binding blockers, IC50 – biochemical, fluorescence polarization, FITC-PAM2 peptide, dose response (AID 602259); assay type: functional; details: read-out: IC50_Mean
[24] = molecular target: T6, Short transient receptor potential channel 4 (Mus musculus, UniProt Q9QUQ5); experiment: block of DAMGO-driven TRPC4 calcium entry – cell-based, HEK293 TRPC4/mu-opioid, Fluo-4 calcium, dose response (AID 434942); assay type: functional;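 further: potency of inhibitors blocking the TRPC4 calcium response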
T6 sequence (Q9QUQ5 whole entry): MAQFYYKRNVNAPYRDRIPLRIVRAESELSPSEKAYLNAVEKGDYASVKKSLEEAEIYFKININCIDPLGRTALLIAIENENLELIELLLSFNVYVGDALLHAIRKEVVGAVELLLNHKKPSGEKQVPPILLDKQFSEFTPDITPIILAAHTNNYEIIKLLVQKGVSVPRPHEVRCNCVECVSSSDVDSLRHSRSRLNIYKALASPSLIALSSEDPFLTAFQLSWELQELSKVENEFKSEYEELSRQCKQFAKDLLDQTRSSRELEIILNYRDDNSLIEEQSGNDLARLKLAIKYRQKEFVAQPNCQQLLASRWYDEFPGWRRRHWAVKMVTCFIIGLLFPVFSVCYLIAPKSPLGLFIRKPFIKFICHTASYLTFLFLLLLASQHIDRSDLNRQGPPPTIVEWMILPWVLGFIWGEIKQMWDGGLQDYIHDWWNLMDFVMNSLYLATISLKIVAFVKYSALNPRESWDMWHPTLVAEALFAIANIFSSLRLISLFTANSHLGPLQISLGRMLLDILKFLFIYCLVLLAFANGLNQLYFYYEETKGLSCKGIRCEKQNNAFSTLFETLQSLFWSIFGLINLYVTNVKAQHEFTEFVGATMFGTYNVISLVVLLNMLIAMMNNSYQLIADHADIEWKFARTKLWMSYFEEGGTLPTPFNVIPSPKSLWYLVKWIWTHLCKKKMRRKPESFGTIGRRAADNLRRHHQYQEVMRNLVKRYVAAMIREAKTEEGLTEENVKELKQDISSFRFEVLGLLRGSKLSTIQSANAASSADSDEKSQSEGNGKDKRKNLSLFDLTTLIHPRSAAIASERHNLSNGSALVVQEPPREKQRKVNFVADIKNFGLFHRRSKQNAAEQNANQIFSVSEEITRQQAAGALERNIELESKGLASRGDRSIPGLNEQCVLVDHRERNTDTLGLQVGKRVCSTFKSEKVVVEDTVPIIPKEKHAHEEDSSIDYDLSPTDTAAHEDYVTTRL

Glyceraldehyde-3-phosphate dehydrogenase, sequence (P04406 whole entry): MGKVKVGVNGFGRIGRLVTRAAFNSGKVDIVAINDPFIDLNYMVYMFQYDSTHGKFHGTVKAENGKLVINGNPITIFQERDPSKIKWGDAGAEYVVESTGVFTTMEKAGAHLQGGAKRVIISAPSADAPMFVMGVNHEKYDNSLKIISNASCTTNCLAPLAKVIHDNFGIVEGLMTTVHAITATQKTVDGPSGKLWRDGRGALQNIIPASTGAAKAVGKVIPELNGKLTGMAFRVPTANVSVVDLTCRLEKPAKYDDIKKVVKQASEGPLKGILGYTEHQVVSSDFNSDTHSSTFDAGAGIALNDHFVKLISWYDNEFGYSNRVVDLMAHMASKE

## COc1cc(S(=O)(=O)Nc2cccnc2)c(OC)cc1Cl
[1]
  IC50: > 100 µM (not active)

## Cc1ccc(C2=NC(=O)/C(=C/C=C/c3ccc([N+](=O)[O-])o3)S2)cc1
[1]
  IC50: > 100 µM (not active)

## C=CCn1cnc2c(c1=O)c1nc3ccccc3nc1n2/N=C/c1cc(OC)c(OC)c(OC)c1
[2]
  EC50: 11.2 µM (active)
[3]
  EC50: 5.68 µM (active)
[4]
  EC50: 4.4 µM (active)
[5]
  EC50: 4.67 µM (active)
H9c2
  IC50: > 79 µM (inactive)

## CCC(C(=O)Nc1nnc(-c2ccco2)s1)c1ccccc1 (configuration not stated)
[6]
  EC50: > 79.4 µM (inactive)
[7]
  EC50: > 79.4 µM (not active)
[8]
  EC50: 43.6 µM (not active)

## O=C(CSc1nnc(SCC(=O)c2ccco2)s1)c1ccco1
Estrogen receptor
  IC50: 21.2 µM (active)
Estrogen receptor beta [9]
  IC50: 6.51 µM (active)
Estrogen receptor beta [10]
  IC50: > 109 µM (not active)

## CC(C)(C)CC(=O)NC(=S)NCCc1ccccc1
[11]
  CC50: 39.4 µM (active)
Cells [12]
  IC50: 18.4 µM (active)

## Cc1ccc(-n2c(S)nnc2-c2ccccc2)cc1
[6]
  EC50: 33.6 µM (inactive)
[7]
  EC50: > 79.4 µM (not active)
[8]
  EC50: 18.4 µM (not active)

## Cn1c(=O)cc(SCC(=O)NCc2cccnc2)c2ccccc21
[6]
  EC50: > 79.4 µM (inactive)
[7]
  EC50: > 79.4 µM (not active)
[8]
  EC50: > 79.4 µM (not active)

## COc1cccc(N2C(=O)NC(=O)/C(=C/c3ccc([N+](=O)[O-])s3)C2=O)c1
[11]
  CC50: 13.8 µM (active)
[13]
  EC50: 34.4 µM (active)
[14]
  EC50: 27.2 µM (active)
Large T antigen
  IC50: 47.3 µM (active)
[15]
  CC50: 37.1 µM (active)
Cells [16]
  IC50: 27.6 µM (active)
Genome polyprotein
  IC50: 38 µM (active)

## CCN(CC)c1nc2c3c(nc4c(c3c1C#N)CC(=O)N4c1ccc(Cl)cc1)NC(C)=N2
[17]
  IC50: 2.18 µM (active)

## CCOC(=O)Cc1cc(O)n2nc(-c3ccc(C)cc3)cc2n1
Estrogen receptor
  IC50: 13.9 µM (active)
Estrogen receptor beta [9]
  IC50: 6.5 µM (active)
Estrogen receptor beta [10]
  IC50: 46.7 µM (not active)

## O=C(CN1CCN(c2ccc(O)cc2)CC1)Nc1cc([N+](=O)[O-])ccc1Cl
[17]
  IC50: 5.07 µM (active)
[18]
  AC50: 1.24 µM (active)

## COC(=O)C1=C(C)N(Cc2ccccc2)C(=O)N[C@H]1c1cccc(C(F)(F)F)c1
[11]
  CC50: 32.9 µM (active)
Cells [12]
  IC50: 8.17 µM (active)

## O=C(CCN1CCc2ccccc2C1)c1ccc2c(c1)OCCO2
[2]
  EC50: 9.07 µM (active)
[3]
  EC50: 11.5 µM (active)

## O=[N+]([O-])c1cc(C(F)(F)F)ccc1N1CCC(O)CC1
[11]
  CC50: 47.2 µM (active)
Cells [12]
  IC50: 19.8 µM (active)

## Cc1ccc2nc(N(CCCN(C)C)C(=O)c3cc4ccccc4oc3=O)sc2c1
[19]
  EC50: < 0.1 µM (active)
[20]
  EC50: > 60 µM (not active)
Cells [21]
  EC50: 0.116 µM (active)

## CN(C)C1=C(Cl)C(=O)N(c2cccc(C(F)(F)F)c2)C1=O
[1]
  IC50: > 50 µM (inconclusive)

## Nc1nc(-c2ccco2)c(-c2ccco2)s1
Estrogen receptor beta [9]
  IC50: > 50 µM (not active)
Estrogen receptor beta [10]
  IC50: 101 µM (not active)
[22]
  IC50: > 66 µM (inactive)
[23]
  IC50: > 66 µM (inactive)

## CN(CC1CCCN(CCc2cccc(C(F)(F)F)c2)C1)C(=O)c1cc2ccccc2o1 (configuration not stated)
[19]
  EC50: < 0.1 µM (active)
[20]
  EC50: 8.57 µM (active)
[24]
  EC50: 0.668 µM (active)
Cells [21]
  EC50: 0.082 µM (active)
